Laboratory results from ChEMBL document CHEMBL1134196, “Oxo-piperazine derivatives of N-arylpiperazinones as inhibitors of farnesyltransferase” (Bioorg Med Chem Lett, 2001).

Key:
[1] = Maximal plasma concentration required for pharmacokinetic data in dogs at dose of 1 mg/kg perorally; format: ADME, organism-based, Canis lupus familiaris; parameters: dose 1 mg/kg, route oral; conditions: dog, po
[2] = Partition coefficient (logP); format: physicochemical; conditions: octanol/water
Rat1 [3] = assay: Inhibition of anchorage-dependent proliferation of RAT1 v-Ha-ras-transformed cells on poly(HEMA); format: functional, cell-based; conditions: Rattus norvegicus
[4] = Half life value of the compound; format: ADME; conditions: rat
Rat1 [5] = assay: Inhibition of RAT1 v-Ha-ras-transformed cell growth in soft agar; format: functional; conditions: Rattus norvegicus
[6] = Pharmacokinetic data in dogs at dose of 1 mg/kg perorally, and the area under curve (AUC) was reported.; format: ADME, organism-based, Canis lupus familiaris; parameters: dose 1 mg/kg, route oral; conditions: dog, in vivo, po
Rattus norvegicus = species: Rattus norvegicus; assay: Concentration at which 80% cultured cells remain viable assessed by MTT staining; format: functional
[7] = biological target: Protein farnesyltransferase (Homo sapiens, UniProt P49354+P49356); assay: Inhibition of [3H]FPP incorporation into recombinant Ras-CVIM by human farnesyl transferase; format: protein-complex assay
[8] = biological target: Geranylgeranyl transferase type I (Homo sapiens, UniProt P49354+P53609); assay: Inhibition of human geranylgeranyltransferase-1; format: protein-complex assay

Structure (SMILES) | Cmax [1] | logP [2] | half-life [4] | AUC [6] | IC50 [7] | IC50 [8] | IC50 (Rat1 [3]) | IC90 (Rat1 [5]) | IC20 (Rattus norvegicus)
N#Cc1ccc(Cn2cncc2CN2CCN(c3cccc(Cl)c3)CC2)cc1 |  | > 3.4 |  |  | 250 µM |  |  | 1000 nM | 25 µM
Cc1cccc(N2CCN(Cc3cncn3Cc3ccc(C#N)cc3)C(=O)C2=O)c1C | 2290 nM | 1.11 | 60 min | 4.43 µM·h | 20 µM |  |  | > 1000 nM | 10 µM
N#Cc1ccc(Cn2cncc2CN2CCN(c3ccccc3)C(=O)C2)cc1 |  | 1.32 |  |  | 5 µM | 8.7 µM |  |  | 
N#Cc1ccc(Cn2cncc2CN2CCN(c3ccccc3)C(=O)C2=O)cc1 |  | 0.46 |  |  | 16 µM | > 20 µM |  |  | 
N#Cc1ccc(Cn2cncc2CN2CC(=O)N(c3ccccc3)CC2=O)cc1 |  | 0.55 |  |  | 950 µM |  |  |  | 
N#Cc1ccc(Cn2cncc2CN2CCN(c3cccc(Cl)c3)C(=O)C2)cc1 [L-778123 FREE BASE] | 2980 nM | 2.11 | 47.4 min | 5.3 µM·h |  |  |  | 100 nM | > 100 µM

Second part, led by results:

Cmax [1] | logP [2] | half-life [4] | AUC [6] | IC50 [7] | IC50 [8] | Structure (SMILES) | IC50 (Rat1 [3]) | IC90 (Rat1 [5]) | IC20 (Rattus norvegicus)
140 nM | > 3.7 | 36 min | 0.15 µM·h |  |  | CCCC[C@H]1CN(c2cccc(C)c2C)C(=O)CN1Cc1cncn1Cc1ccc(C#N)cc1 | 28 µM | 1000 nM | 50 µM
3140 nM | 2.51 | 72 min | 8.58 µM·h | 100 µM |  | N#Cc1ccc(Cn2cncc2CN2CCN(c3cccc(Cl)c3)CC2=O)cc1 |  | 1000 nM | > 100 µM
 |  |  |  | 33 µM |  | N#Cc1ccc(Cn2cncc2C(=O)N2CCN(c3cccc(Cl)c3)C(=O)C2)cc1 |  | 1000 nM | > 100 µM
1060 nM | 2 | 30 min | 1.4 µM·h | 11 µM |  | Cc1cccc(N2CCN(Cc3cncn3Cc3ccc(C#N)cc3)CC2=O)c1C | 83 µM | 1000 nM | 10 µM
 | 2.79 |  |  |  |  | N#Cc1ccc(Cn2cncc2C(=O)N2CCN(c3cccc(Cl)c3)CC2)cc1 |  | 100 nM | > 100 µM
3110 nM | 1.24 | 132 min | 12.5 µM·h | 11 µM |  | N#Cc1ccc(Cn2cncc2CN2CCN(c3cccc(Cl)c3)C(=O)C2=O)cc1 |  | 1000 nM | > 100 µM
960 nM | > 3.5 | 138 min | 3.46 µM·h | 1.3 µM |  | CCCC[C@H]1CN(c2cccc(C)c2C)CC(=O)N1Cc1cncn1Cc1ccc(C#N)cc1 | 2.51 µM | 10000 nM | 100 µM
1950 nM | 3.3 | 54 min | 4.25 µM·h | 3 µM |  | CCCC[C@H]1CN(c2cccc(C)c2C)C(=O)C(=O)N1Cc1cncn1Cc1ccc(C#N)cc1 | 15 µM | 1000 nM | 10 µM
